Reference: PubChem BioAssay AID1919007 (Molecular Pharmacology Branch, DTP, NCI, 2023)
Values joined by “and” are separate entries in the source; they are usually repeats but may differ in a detail not shown here. Equal entries are not always repeated.

Test system: A498 complex spheroids with HUVEC/MSC, growth
Assay: Anticancer human tumor A498 cell line growth inhibition [AhR];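 also: seven day exposure starting three days after spheroid seeding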;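 as to viability, T/C: luminescence signal used as a surrogate for viable cells; luminescence viability scaled so 100% equals DMSO vehicle wells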
Settings: for viability, T/C: stronger effect = lower value; active = viability on the fitted dose curve at most 10% of control; inactive = the rest
Procedure, shortened: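 Agents were dosed in half-log steps down from roughly clinical Cmax, or from 10 microM where Cmax was unknown, alone and with AhR antagonists. Read-out: percent test/control growth of tumor spheroids containing HUVEC and MSC stromal cells.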

[1] = curve of first compound, second compound 0.1 µM
[2] = curve of first compound, second compound 0.316 µM
[3] = curve of first compound, second compound 1 µM
[4] = curve of first compound, second compound 3.16 µM
[5] = curve of first compound, second compound 10 µM
[6] = second compound 0.1 µM, first compound 0.0316 µM
[7] = second compound 0.1 µM, first compound 0.1 µM
[8] = second compound 0.1 µM, first compound 0.316 µM
[9] = second compound 0.1 µM, first compound 1 µM
[10] = second compound 0.1 µM, first compound 3.16 µM
[11] = second compound 0.1 µM, first compound 10 µM
[12] = second compound 0.316 µM, first compound 0.0316 µM
[13] = second compound 0.316 µM, first compound 0.1 µM
[14] = second compound 0.316 µM, first compound 0.316 µM
[15] = second compound 0.316 µM, first compound 1 µM
[16] = second compound 0.316 µM, first compound 3.16 µM
[17] = second compound 0.316 µM, first compound 10 µM
[18] = second compound 1 µM, first compound 0.0316 µM
[19] = second compound 1 µM, first compound 0.1 µM
[20] = second compound 1 µM, first compound 0.316 µM
[21] = second compound 1 µM, first compound 1 µM
[22] = second compound 1 µM, first compound 3.16 µM
[23] = second compound 1 µM, first compound 10 µM
[24] = second compound 3.16 µM, first compound 0.0316 µM
[25] = second compound 3.16 µM, first compound 0.1 µM
[26] = second compound 3.16 µM, first compound 0.316 µM
[27] = second compound 3.16 µM, first compound 1 µM
[28] = second compound 3.16 µM, first compound 3.16 µM
[29] = second compound 3.16 µM, first compound 10 µM
[30] = second compound 10 µM, first compound 0.0316 µM
[31] = second compound 10 µM, first compound 0.1 µM
[32] = second compound 10 µM, first compound 0.316 µM
[33] = second compound 10 µM, first compound 1 µM
[34] = second compound 10 µM, first compound 3.16 µM
[35] = second compound 10 µM, first compound 10 µM

Nc1ccccc1NC(=O)c1ccc(CNC(=O)OCc2cccnc2)cc1 + Cc1cncc(-c2nc(NCCc3c[nH]c4ccccc34)c3ncn(C(C)C)c3n2)c1
1.26 µM: IC50 [2]
1.22 µM: IC50 [1]
0.221 µM: IC50 [4]
active: viability, T/C [11] 2.08% | viability, T/C [17] 1.77% | viability, T/C [23] 2.18% | viability, T/C [29] 1.1% | viability, T/C [30] 3.86% | viability, T/C [31] 3.69% | viability, T/C [32] 2.11% | viability, T/C [33] 1.29% | viability, T/C [34] 0.5% | viability, T/C [35] 0.86%
inactive: viability, T/C [6] 82.6% | viability, T/C [7] 79.7% | viability, T/C [8] 70.5% | viability, T/C [9] 57.8% | viability, T/C [10] 23% | viability, T/C [12] 83.6% | viability, T/C [13] 84% | viability, T/C [14] 84% | viability, T/C [15] 53.7% | viability, T/C [16] 24% | viability, T/C [18] 83.8% | viability, T/C [19] 78.5% | viability, T/C [20] 72.8% | viability, T/C [21] 56.1% | viability, T/C [22] 18.1% | viability, T/C [24] 50.4% | viability, T/C [25] 49.9% | viability, T/C [26] 51.5% | viability, T/C [27] 41.2% | viability, T/C [28] 16.9%
< 0.0316 µM: IC50 [5]
1.15 µM: IC50 [3]

COc1cc(C2c3cc4c(cc3C(OC3OC5COC(C)OC5C(O)C3O)C3COC(=O)C23)OCO4)cc(OC)c1O (configuration not stated)
> 10 µM and 3.71 µM: IC50 (curve of compound)
inactive: viability, T/C (compound 0.0316 µM) 93% and 80.8% and 89.6% | viability, T/C (compound 0.1 µM) 85.5% and 80.2% and 81.8% | viability, T/C (compound 0.316 µM) 78.7% and 63.3% and 72.5% | viability, T/C (compound 1 µM) 71.5% and 64% and 69.3% | viability, T/C (compound 3.16 µM) 66.6% and 52.6% and 68.2% | viability, T/C (compound 10 µM) 51.8% and 40% and 56.3%

CC(C)CC(NC(=O)C(Cc1ccccc1)NC(=O)c1cnccn1)B(O)O (configuration not stated) + Cc1ccccc1N=Nc1ccc(NC(=O)c2ccnn2C)c(C)c1
0.00516 µM: IC50 [4]
0.00511 µM: IC50 [5]
active: viability, T/C (second compound 0.1 µM, first compound 0.03 µM) 2.56% | viability, T/C (second compound 0.1 µM, first compound 0.0949 µM) 1.06% | viability, T/C (second compound 0.1 µM, first compound 0.3 µM) 0.48% | viability, T/C (second compound 0.316 µM, first compound 0.03 µM) 3.7% | viability, T/C (second compound 0.316 µM, first compound 0.0949 µM) 3.08% | viability, T/C (second compound 0.316 µM, first compound 0.3 µM) 1.05% | viability, T/C (second compound 1 µM, first compound 0.03 µM) 3.99% | viability, T/C (second compound 1 µM, first compound 0.0949 µM) 2.9% | viability, T/C (second compound 1 µM, first compound 0.3 µM) 0.61% | viability, T/C (second compound 3.16 µM, first compound 0.03 µM) 4.56% | viability, T/C (second compound 3.16 µM, first compound 0.0949 µM) 3.32% | viability, T/C (second compound 3.16 µM, first compound 0.3 µM) 0.84% | viability, T/C (second compound 10 µM, first compound 0.00949 µM) 8.3% | viability, T/C (second compound 10 µM, first compound 0.03 µM) 4.14% | viability, T/C (second compound 10 µM, first compound 0.0949 µM) 1.64% | viability, T/C (second compound 10 µM, first compound 0.3 µM) 1.69%
0.00525 µM: IC50 [1]
inactive: viability, T/C (second compound 0.1 µM, first compound 0.000949 µM) 91.9% | viability, T/C (second compound 0.1 µM, first compound 0.003 µM) 85.5% | viability, T/C (second compound 0.1 µM, first compound 0.00949 µM) 12.4% | viability, T/C (second compound 0.316 µM, first compound 0.000949 µM) 99.1% | viability, T/C (second compound 0.316 µM, first compound 0.003 µM) 102% | viability, T/C (second compound 0.316 µM, first compound 0.00949 µM) 11% | viability, T/C (second compound 1 µM, first compound 0.000949 µM) 81.7% | viability, T/C (second compound 1 µM, first compound 0.003 µM) 86.3% | viability, T/C (second compound 1 µM, first compound 0.00949 µM) 12.4% | viability, T/C (second compound 3.16 µM, first compound 0.000949 µM) 80.9% | viability, T/C (second compound 3.16 µM, first compound 0.003 µM) 86.7% | viability, T/C (second compound 3.16 µM, first compound 0.00949 µM) 11.8% | viability, T/C (second compound 10 µM, first compound 0.000949 µM) 84.8% | viability, T/C (second compound 10 µM, first compound 0.003 µM) 87.2%
0.00575 µM: IC50 [2]
0.00519 µM: IC50 [3]

Nc1ccn(C2OC(CO)C(O)C2(F)F)c(=O)n1 (configuration not stated) + Cc1cncc(-c2nc(NCCc3c[nH]c4ccccc34)c3ncn(C(C)C)c3n2)c1
active: viability, T/C [30] 4.54% | viability, T/C [31] 4.79% | viability, T/C [32] 5.17% | viability, T/C [33] 3.59% | viability, T/C [34] 3.85% | viability, T/C [35] 5.49%
< 0.0316 µM: IC50 [1] | IC50 [2] | IC50 [3] | IC50 [4] | IC50 [5]
inactive: viability, T/C [6] 26.9% | viability, T/C [7] 33.5% | viability, T/C [8] 41.7% | viability, T/C [9] 41.2% | viability, T/C [10] 36.5% | viability, T/C [11] 39.1% | viability, T/C [12] 29% | viability, T/C [13] 32% | viability, T/C [14] 42.7% | viability, T/C [15] 43.7% | viability, T/C [16] 41.9% | viability, T/C [17] 39.9% | viability, T/C [18] 32.7% | viability, T/C [19] 26.5% | viability, T/C [20] 39.7% | viability, T/C [21] 42.2% | viability, T/C [22] 39.5% | viability, T/C [23] 34% | viability, T/C [24] 45.1% | viability, T/C [25] 27.8% | viability, T/C [26] 28.7% | viability, T/C [27] 30.5% | viability, T/C [28] 28.8% | viability, T/C [29] 33%

COc1cc(C2c3cc4c(cc3C(OC3OC5COC(C)OC5C(O)C3O)C3COC(=O)C23)OCO4)cc(OC)c1O (configuration not stated) + CC(CO)NC(=O)c1cc(-c2ccc(Cl)cc2)nn(-c2cnn(C)c2)c1=O
1.08 µM: IC50 [4]
2.97 µM: IC50 [1]
0.4 µM: IC50 [5]
2.08 µM: IC50 [2]
1.56 µM: IC50 [3]
inactive: viability, T/C [6] 74.1% | viability, T/C [7] 81.2% | viability, T/C [8] 69.4% | viability, T/C [9] 57.7% | viability, T/C [10] 52.5% | viability, T/C [11] 42.2% | viability, T/C [12] 74.2% | viability, T/C [13] 73.1% | viability, T/C [14] 68% | viability, T/C [15] 52.9% | viability, T/C [16] 49.8% | viability, T/C [17] 40.1% | viability, T/C [18] 66.7% | viability, T/C [19] 77% | viability, T/C [20] 71.3% | viability, T/C [21] 53.3% | viability, T/C [22] 47.3% | viability, T/C [23] 40.3% | viability, T/C [24] 64.4% | viability, T/C [25] 66.7% | viability, T/C [26] 64.5% | viability, T/C [27] 50.2% | viability, T/C [28] 41.9% | viability, T/C [29] 38.2% | viability, T/C [30] 49.3% | viability, T/C [31] 57.7% | viability, T/C [32] 53.3% | viability, T/C [33] 37.9% | viability, T/C [34] 37.3% | viability, T/C [35] 30.7%

Nc1ncn(C2CC(O)C(CO)O2)c(=O)n1 (configuration not stated) + Cc1cncc(-c2nc(NCCc3c[nH]c4ccccc34)c3ncn(C(C)C)c3n2)c1
inactive: viability, T/C (second compound 0.1 µM, first compound 0.00316 µM) 83.2% | viability, T/C (second compound 0.1 µM, first compound 0.01 µM) 93.2% | viability, T/C [6] 88.5% | viability, T/C [7] 85.4% | viability, T/C [8] 75% | viability, T/C [9] 70.1% | viability, T/C (second compound 0.316 µM, first compound 0.00316 µM) 90.3% | viability, T/C (second compound 0.316 µM, first compound 0.01 µM) 94.5% | viability, T/C [12] 92.5% | viability, T/C [13] 88.5% | viability, T/C [14] 83.2% | viability, T/C [15] 81.9% | viability, T/C (second compound 1 µM, first compound 0.00316 µM) 85.4% | viability, T/C (second compound 1 µM, first compound 0.01 µM) 86.4% | viability, T/C [18] 85% | viability, T/C [19] 79.8% | viability, T/C [20] 81% | viability, T/C [21] 76% | viability, T/C (second compound 3.16 µM, first compound 0.00316 µM) 61.5% | viability, T/C (second compound 3.16 µM, first compound 0.01 µM) 65.8% | viability, T/C [24] 71.1% | viability, T/C [25] 60.6% | viability, T/C [26] 62.8% | viability, T/C [27] 63.4%
active: viability, T/C (second compound 10 µM, first compound 0.00316 µM) 4.02% | viability, T/C (second compound 10 µM, first compound 0.01 µM) 3.97% | viability, T/C [30] 6.07% | viability, T/C [31] 3.94% | viability, T/C [32] 4.34% | viability, T/C [33] 4.63%
< 0.00316 µM: IC50 [5]
> 1 µM: IC50 [1] | IC50 [2] | IC50 [3] | IC50 [4]
